Measurements from patent publication US9809587B2, “Pesticidally active heterocyclic derivatives with sulphur containing substituents” (Syngenta Participations AG, priority 2014, dated 2017).

Assays:
Assay type in all cases: in vivo
[1] = system: Diabrotica balteata (Corn Root Worm); experiment: Diabrotica balteata (corn root worm), sprayed maize sprouts; conditions: 96 h, application rate of 200 ppm, L2 larvae on maize sprouts, 4 days after infestation
Description: Example B2: Diabrotica balteata (Corn Root Worm)
Maize sprouts, placed on an agar layer in 24-well microtiter plates were treated with aqueous test solutions prepared from 10′000 ppm DMSO stock solutions by spraying. After drying, the plates were infested with L2 larvae (6 to 10 per well). The samples were assessed for mortality and growth inhibition in comparison to untreated samples 4 days after infestation.

[2] = system: Euschistus heros (Neotropical Brown Stink Bug); experiment: Euschistus heros (neotropical brown stink bug), sprayed soybean leaf; conditions: 120 h, application rate of 200 ppm, N-2 nymphs on soybean leaf, 5 days after infestation
Description: Example B3: Euschistus heros (Neotropical Brown Stink Bug)
Soybean leaf on agar in 24-well microtiter plates were sprayed with aqueous test solutions prepared from 10′000 ppm DMSO stock solutions. After drying the leaf were infested with N-2 nymphs. The samples were assessed for mortality in comparison to untreated samples 5 days after infestation.

[3] = system: Myzus persicae (Green Peach Aphid); experiment: Myzus persicae (green peach aphid), sprayed sunflower leaf discs; conditions: foliar, 144 h, application rate of 200 ppm, mixed ages on sunflower leaf discs, 6 days after infestation
Description: Example B4: Myzus persicae (Green Peach Aphid)
Sunflower leaf discs were placed on agar in a 24-well microtiter plate and sprayed with aqueous test solutions prepared from 10′000 ppm DMSO stock solutions. After drying, the leaf discs were infested with an aphid population of mixed ages. The samples were assessed for mortality 6 days after infestation.

[4] = system: Plutella xylostella (Diamond Back Moth); experiment: Plutella xylostella (diamond back moth), treated artificial diet; conditions: 120 h, application rate of 200 ppm, L2 larvae on artificial diet, 5 days after infestation, read-out: effect in at least one of the two categories (mortality or growth inhibition)
Description: Example B6: Plutella xylostella (Diamond Back Moth)
24-well microtiter plates with artificial diet were treated with aqueous test solutions prepared from 10′000 ppm DMSO stock solutions by pipetting. After drying, the plates were infested with L2 larvae (10 to 15 per well). The samples were assessed for mortality and growth inhibition in comparison to untreated samples 5 days after infestation.
The following compounds gave an effect of at least 80% in at least one of the two categories (mortality or growth inhibition) at an application rate of 200 ppm: […]

[5] = system: Spodoptera littoralis (Egyqptian Cotton Leaf Worm); experiment: Spodoptera littoralis (Egyptian cotton leaf worm), sprayed cotton leaf discs; conditions: foliar, 72 h, application rate of 200 ppm, L1 larvae on cotton leaf discs, 3 days after infestation
Description: Example B7: Spodoptera littoralis (Egyqptian Cotton Leaf Worm)
Cotton leaf discs were placed on agar in 24-well microtiter plates and sprayed with aqueous test solutions prepared from 10′000 ppm DMSO stock solutions. After drying the leaf discs were infested with five L1 larvae. The samples were assessed for mortality, anti-feedant effect, and growth inhibition in comparison to untreated samples 3 days after infestation. Control of Spodoptera littoralis by a test sample is when at least one of mortality, anti-feedant effect, and growth inhibition is higher than the untreated sample.

CCS(=O)(=O)c1cc(-c2cccc(OC)n2)cnc1-c1nc2cc(C(F)(F)F)ncc2n1C [Compound P95]
≥ 80%: mortality at 200 ppm [1] | mortality at 200 ppm [2] | mortality at 200 ppm [3] | percent effect (mortality or growth inhibition) at 200 ppm [4] | percent control (mortality, anti-feedant effect or growth inhibition) at 200 ppm [5]

CCS(=O)(=O)c1cc(-c2sccc2C)cnc1-c1nc2cc(C(F)(F)F)ncc2n1C [Compound P48]
≥ 80%: mortality at 200 ppm [1] | percent effect (mortality or growth inhibition) at 200 ppm [4] | percent control (mortality, anti-feedant effect or growth inhibition) at 200 ppm [5]

CCS(=O)(=O)c1cc(-c2cncc3ccccc23)cnc1-c1nc2cc(C(F)(F)F)ncc2n1C [Compound P7]
≥ 80%: mortality at 200 ppm [1] | percent effect (mortality or growth inhibition) at 200 ppm [4] | percent control (mortality, anti-feedant effect or growth inhibition) at 200 ppm [5]

CCS(=O)(=O)c1cc(-n2ncc3ccccc32)cnc1-c1nc2cc(C(F)(F)F)ncc2n1C [Compound P24]
≥ 80%: percent effect (mortality or growth inhibition) at 200 ppm [4] | percent control (mortality, anti-feedant effect or growth inhibition) at 200 ppm [5]

CCS(=O)(=O)c1cc(-c2cnc3ccccn23)cnc1-c1nc2cc(C(F)(F)F)ncc2n1C [Compound P51]
≥ 80%: mortality at 200 ppm [2] | mortality at 200 ppm [3] | percent effect (mortality or growth inhibition) at 200 ppm [4] | percent control (mortality, anti-feedant effect or growth inhibition) at 200 ppm [5]

CCS(=O)(=O)c1cc(-c2ccc(-c3ccc(F)cc3)nc2)cnc1-c1nc2cc(C(F)(F)F)ncc2n1C [Compound P12]
≥ 80%: mortality at 200 ppm [1] | mortality at 200 ppm [2] | mortality at 200 ppm [3] | percent effect (mortality or growth inhibition) at 200 ppm [4] | percent control (mortality, anti-feedant effect or growth inhibition) at 200 ppm [5]

CCS(=O)(=O)c1cc(-c2ccc(SC)nc2)cnc1-c1nc2cc(C(F)(F)F)ncc2n1C [Compound P75]
≥ 80%: mortality at 200 ppm [1] | mortality at 200 ppm [2] | mortality at 200 ppm [3] | percent effect (mortality or growth inhibition) at 200 ppm [4]

CCS(=O)(=O)c1cc(-c2cnc(O)nc2O)cnc1-c1nc2cc(C(F)(F)F)ncc2n1C [Compound P79]
≥ 80%: percent effect (mortality or growth inhibition) at 200 ppm [4]

CCS(=O)(=O)c1cc(-c2ccc3ccccc3n2)cnc1-c1nc2cc(C(F)(F)F)ncc2n1C [Compound P62]
≥ 80%: mortality at 200 ppm [2] | mortality at 200 ppm [3] | percent effect (mortality or growth inhibition) at 200 ppm [4]

CCS(=O)(=O)c1cc(-c2cnc3nc(C(F)(F)F)cnn23)cnc1-c1nc2cc(C(F)(F)F)ncc2n1C [Compound P38]
≥ 80%: mortality at 200 ppm [1] | mortality at 200 ppm [2] | percent effect (mortality or growth inhibition) at 200 ppm [4] | percent control (mortality, anti-feedant effect or growth inhibition) at 200 ppm [5]

CCS(=O)(=O)c1cc(-c2ccc(OC)nc2)cnc1-c1nc2cc(C(F)(F)F)ncc2n1C [Compound P1, 2-[3-ethylsulfonyl-5-(6-methoxy-3-pyridyl)-2-pyridyl]-3-methyl-6-(trifluoromethyl)imidazo[4,5-c]pyridine]
≥ 80%: mortality at 200 ppm [1] | mortality at 200 ppm [3] | percent effect (mortality or growth inhibition) at 200 ppm [4] | percent control (mortality, anti-feedant effect or growth inhibition) at 200 ppm [5]

CCS(=O)(=O)c1cc(-c2ccc3nccn3c2C)cnc1-c1nc2cc(C(F)(F)F)ncc2n1C [Compound P42]
≥ 80%: mortality at 200 ppm [2] | mortality at 200 ppm [3]

CCS(=O)(=O)c1cc(-c2c(C(F)(F)F)n[nH]c2C)cnc1-c1nc2cc(C(F)(F)F)ncc2n1C [Compound P30]
≥ 80%: mortality at 200 ppm [1] | mortality at 200 ppm [2] | mortality at 200 ppm [3]

CCSc1cc(-n2cc(Cl)cn2)cnc1-c1nc2cc(C(F)(F)F)ncc2n1C [Compound P14, 2-[5-(4-chloropyrazol-1-yl)-3-ethylsulfanyl-2-pyridyl]-3-methyl-6-(trifluoromethyl)imidazo[4,5-c]pyridine]
≥ 80%: mortality at 200 ppm [1] | percent effect (mortality or growth inhibition) at 200 ppm [4] | percent control (mortality, anti-feedant effect or growth inhibition) at 200 ppm [5]

CCS(=O)(=O)c1cc(-c2ncc(N)nc2C)cnc1-c1nc2cc(C(F)(F)F)ncc2n1C [Compound P63]
≥ 80%: mortality at 200 ppm [2] | mortality at 200 ppm [3] | percent effect (mortality or growth inhibition) at 200 ppm [4] | percent control (mortality, anti-feedant effect or growth inhibition) at 200 ppm [5]

CCS(=O)(=O)c1cc(-c2ccc3[nH]c(=O)[nH]c3c2)cnc1-c1nc2cc(C(F)(F)F)ncc2n1C [Compound P76]
≥ 80%: mortality at 200 ppm [1]

CCS(=O)(=O)c1cc(-c2ncc(OC)cn2)cnc1-c1nc2cc(C(F)(F)F)ncc2n1C [Compound P97]
≥ 80%: mortality at 200 ppm [2] | mortality at 200 ppm [3] | percent effect (mortality or growth inhibition) at 200 ppm [4] | percent control (mortality, anti-feedant effect or growth inhibition) at 200 ppm [5]

CCS(=O)(=O)c1cc(-c2ccsc2C)cnc1-c1nc2cc(C(F)(F)F)ncc2n1C [Compound P68]
≥ 80%: mortality at 200 ppm [2] | percent control (mortality, anti-feedant effect or growth inhibition) at 200 ppm [5]

CCS(=O)(=O)c1cc(-c2ccc(C)s2)cnc1-c1nc2cc(C(F)(F)F)ncc2n1C [Compound P69]
≥ 80%: mortality at 200 ppm [2] | mortality at 200 ppm [3] | percent effect (mortality or growth inhibition) at 200 ppm [4] | percent control (mortality, anti-feedant effect or growth inhibition) at 200 ppm [5]

CCS(=O)(=O)c1cc(-n2ncc3cnc(C(F)(F)F)cc32)cnc1-c1nc2cc(C(F)(F)F)ncc2n1C [Compound P29]
≥ 80%: mortality at 200 ppm [1] | percent effect (mortality or growth inhibition) at 200 ppm [4] | percent control (mortality, anti-feedant effect or growth inhibition) at 200 ppm [5]

CCS(=O)(=O)c1cc(-n2nc(C(F)(F)F)cc2-c2ccc(F)cc2)cnc1-c1nc2cc(C(F)(F)F)ncc2n1C [Compound P28]
≥ 80%: mortality at 200 ppm [1] | percent effect (mortality or growth inhibition) at 200 ppm [4] | percent control (mortality, anti-feedant effect or growth inhibition) at 200 ppm [5]

CCS(=O)(=O)c1cc(-c2cnc(Cl)c(C)c2)cnc1-c1nc2cc(C(F)(F)F)ncc2n1C [Compound P4]
≥ 80%: mortality at 200 ppm [2] | mortality at 200 ppm [3] | percent effect (mortality or growth inhibition) at 200 ppm [4] | percent control (mortality, anti-feedant effect or growth inhibition) at 200 ppm [5]

CCS(=O)(=O)c1cc(-c2ccnc(C#N)c2)cnc1-c1nc2cc(C(F)(F)F)ncc2n1C [Compound P99]
≥ 80%: mortality at 200 ppm [1] | mortality at 200 ppm [2] | percent effect (mortality or growth inhibition) at 200 ppm [4]

CCS(=O)(=O)c1cc(-c2cc(C)oc2C#N)cnc1-c1nc2cc(C(F)(F)F)ncc2n1C [Compound P78]
≥ 80%: mortality at 200 ppm [1] | mortality at 200 ppm [3]

CCS(=O)(=O)c1cc(-c2ccncc2C#N)cnc1-c1nc2cc(C(F)(F)F)ncc2n1C [Compound P73]
≥ 80%: mortality at 200 ppm [1] | mortality at 200 ppm [2] | mortality at 200 ppm [3] | percent effect (mortality or growth inhibition) at 200 ppm [4]

CCS(=O)(=O)c1cc(-c2ccnc(C#N)n2)cnc1-c1nc2cc(C(F)(F)F)ncc2n1C [Compound P107]
≥ 80%: mortality at 200 ppm [1] | percent effect (mortality or growth inhibition) at 200 ppm [4] | percent control (mortality, anti-feedant effect or growth inhibition) at 200 ppm [5]

CCSc1cc(-n2nc(C)cc2C)cnc1-c1nc2cc(C(F)(F)F)ncc2n1C [Compound P13]
≥ 80%: mortality at 200 ppm [1]
